In data set [1] the target is T1, Recombinant human soluble guanylate cyclase (sGC), alpha 1 / beta 1 subunits, heme-free (Homo sapiens, UniProt Q02108+Q02153).
T1 construct: histidine tag (C); made in house; host or cells: Sf9 insect cells (baculovirus coinfection)
T1 sequence (Q02108 1-690 partner): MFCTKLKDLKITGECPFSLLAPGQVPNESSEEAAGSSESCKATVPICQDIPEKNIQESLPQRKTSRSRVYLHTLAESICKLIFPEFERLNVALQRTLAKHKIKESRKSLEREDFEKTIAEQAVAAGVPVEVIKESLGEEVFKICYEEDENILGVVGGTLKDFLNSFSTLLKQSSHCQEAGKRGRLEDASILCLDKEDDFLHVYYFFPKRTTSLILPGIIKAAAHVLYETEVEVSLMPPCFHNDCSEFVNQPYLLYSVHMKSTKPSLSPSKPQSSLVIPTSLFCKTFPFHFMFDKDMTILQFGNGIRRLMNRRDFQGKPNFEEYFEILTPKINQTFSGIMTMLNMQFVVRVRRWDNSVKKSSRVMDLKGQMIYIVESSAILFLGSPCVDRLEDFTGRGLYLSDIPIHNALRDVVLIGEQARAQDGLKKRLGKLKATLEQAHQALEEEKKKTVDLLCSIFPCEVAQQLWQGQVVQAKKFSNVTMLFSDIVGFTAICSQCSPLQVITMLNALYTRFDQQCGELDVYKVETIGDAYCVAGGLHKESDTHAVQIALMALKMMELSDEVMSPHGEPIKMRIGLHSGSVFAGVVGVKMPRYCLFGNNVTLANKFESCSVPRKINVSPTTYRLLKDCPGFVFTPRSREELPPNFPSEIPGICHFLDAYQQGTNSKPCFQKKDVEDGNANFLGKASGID
T1 sequence (Q02153 1-619): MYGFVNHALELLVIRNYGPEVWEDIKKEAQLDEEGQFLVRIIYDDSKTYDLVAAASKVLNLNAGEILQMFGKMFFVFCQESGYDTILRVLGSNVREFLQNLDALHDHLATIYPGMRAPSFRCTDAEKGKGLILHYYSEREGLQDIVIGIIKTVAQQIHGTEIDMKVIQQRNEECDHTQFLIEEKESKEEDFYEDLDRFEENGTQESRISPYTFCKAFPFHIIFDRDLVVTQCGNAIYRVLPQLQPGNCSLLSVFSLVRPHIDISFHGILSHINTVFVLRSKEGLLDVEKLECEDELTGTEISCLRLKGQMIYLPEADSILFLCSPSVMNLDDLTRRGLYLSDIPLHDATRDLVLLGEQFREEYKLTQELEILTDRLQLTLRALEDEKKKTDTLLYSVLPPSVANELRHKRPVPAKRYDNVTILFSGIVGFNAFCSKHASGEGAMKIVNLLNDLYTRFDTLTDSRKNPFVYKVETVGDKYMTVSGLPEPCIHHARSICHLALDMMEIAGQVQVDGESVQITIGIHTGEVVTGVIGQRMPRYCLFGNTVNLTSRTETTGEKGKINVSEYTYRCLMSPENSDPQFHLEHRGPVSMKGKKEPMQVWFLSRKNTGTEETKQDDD
The experiment in a line: Molecular assay: cGMP formation by heme-free recombinant sGC (CisBio cGMP detection kit). The format is biochemical. The settings on record: 300 pM heme-free sGC, 37° C., 60 min, cGMP readout; read-out: EC50 nM, Activity of Compounds in Molecular Assay. In short, it runs like this:
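cGMP generated over 60 min at 37° C (pH 6.8 MOPS buffer, 50 nM GTP, 1.25 mM IBMX, 1% DMSO) by 300 pM heme-free sGC, expressed in Sf9 and heme-stripped with 0.5% Tween 20. HTRF ratios converted to nM cGMP; EC50 fitted from log concentration.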

A short description of data set [2]: Assessment of solubility: HT solubility in pION buffer, UV spectrophotometry. The settings on record: 16-19 h incubation, 1.0% DMSO; for solubility: pION system solution buffer, kinetic from dmso stock.
Where [3] appears, read: pH 4.5, pH 4.5, aqueous buffer, Solubility (pH 4.5), pH 4.5 buffer.
Setting [4] is: pH 7.4, pH 7.4, aqueous buffer, Solubility (pH 7.4), pH 7.4 buffer.

≈ marks a conversion by molar mass, not a printed value. Bounds are passed on as bounds.

As a reminder, the EC50 is the midpoint of the concentration-response curve. By solubility is commonly meant the concentration that dissolves in the medium under given conditions.

Turning to `Cc1ccc(OCc2ccc(CN3CCOCC3)cc2C)c(-c2csc(N3CCCC(C(=O)O)CC3)n2)c1` (stereo not drawn) [Compound 52], the concentration giving a half-maximal response (EC50) in data set [1] came to 39 nM. Also, the solubility in data set [2] (setting [3]) and in data set [2] (setting [4]) was above 58 µg/mL each time.
As for `Cc1cc(CN2CCCC(O)C2)ccc1COc1c(C)cccc1-c1csc(N2CCC(C(=O)O)CC2)n1` (stereo not drawn) [Compound 53], in data set [1], the 50% effective concentration (EC50) was determined as 640 nM. For the same molecule, the solubility in data set [2] (setting [3]) and in data set [2] (setting [4]) was above 53 µg/mL throughout.
For the molecule `Cc1cc(CN2CCC(O)CC2)ccc1COc1c(C)cccc1-c1csc(N2CCC(C(=O)O)CC2)n1` [Compound 54], the concentration for a half-maximal effect (EC50) in data set [1] was 2000 nM. Moreover, the solubility in data set [2] (setting [3]) and in data set [2] (setting [4]) was 16 µg/mL (≈ 29.9 µM) in each case.
With `Cc1cc(C(=O)N2CCCCC2)ccc1COc1ccc(F)cc1-c1csc(N2CC3C(C2)C3C(=O)O)n1` (stereo not drawn) [Compound 55], the EC50 in data set [1] came out at 360 nM. Besides, the solubility is 0.3 µg/mL (≈ 0.56 µM) in data set [2] (setting [3]) and above 53 µg/mL in data set [2] (setting [4]).
Consider `Cc1cc(C(=O)N2CCCCC2)ccc1COc1ccc(F)cc1-c1csc([C@H]2CC[C@@H](C(=O)O)CC2)n1` [Compound 56], for which the concentration giving a half-maximal response (EC50) in data set [1] was 1600 nM. Also, the results for the solubility in data set [2] (setting [3]) and in data set [2] (setting [4]) were 0.2 µg/mL (≈ 0.373 µM) and 29 µg/mL (≈ 54 µM), respectively.
For the molecule `Cc1cc(C(=O)N2CCCCC2)ccc1COc1ccc(F)cc1-c1csc([C@H]2CC[C@H](C(=O)O)CC2)n1` [Compound 57], the 50% effective concentration (EC50) in data set [1] stood at 1800 nM. Also, the “Solubility (pH 4.5)” value in data set [2] (pH 4.5 buffer) was 0.1 μg/mL. The molecule further yielded a solubility in data set [2] (setting [4]) above 53 µg/mL.
As to `Cc1cc(CN2CCOCC2)ccc1COc1ccc(F)cc1-c1csc(N2CCC(C(=O)O)C(C)C2)n1` (stereo not drawn) [Compound 58], the EC50 in data set [1] stood at 480 nM. Also, the values for the solubility in data set [2] (setting [3]) and in data set [2] (setting [4]) were 44 µg/mL (≈ 81.5 µM) and above 61 µg/mL, respectively.
Take `Cc1cc(C(=O)N2CCCCC2)ccc1COc1ccc(F)cc1-c1csc(N2CCC(C(=O)O)CC2)n1` [Compound 59]: in data set [1], the 50% effective concentration (EC50) came to 39 nM. Further, the solubility is 0.5 µg/mL (≈ 0.93 µM) in data set [2] (setting [3]) and above 53 µg/mL in data set [2] (setting [4]).
The like results for `Cc1ccc(OCc2ccc(CN3CCOCC3)cc2C)c(-c2csc(N3CCC(F)(C(=O)O)CC3)n2)c1` [Compound 60] were, in that order, 1200 nM, above 58 µg/mL and above 58 µg/mL.
The like results for `Cc1cc(CN2CCOCC2)ccc1COc1ccc(F)cc1-c1csc(N2CCC(C(=O)O)CC2C)n1` (stereo not drawn) [Compound 61] were, in that order, 440 nM, 44 µg/mL (≈ 81.5 µM) and above 61 µg/mL.
The like results for `Cc1cc(CN2CCOCC2)ccc1COc1c(Cl)cccc1-c1csc(N2CCC(C(=O)O)CC2)n1` [Compound 62] were, in that order, 22 nM, 30 µg/mL (≈ 55.3 µM) and above 65 µg/mL.
On to `Cc1cc(CN2CCOCC2)ccc1COc1ccc(Cl)cc1-c1csc(N2CCC(C(=O)O)CC2)n1` [Compound 63], for which, in data set [1], the 50% effective concentration (EC50) came to 110 nM. The solubility came out at 30 µg/mL (≈ 55.3 µM) in data set [2] (setting [3]) and 32 µg/mL (≈ 59 µM) in data set [2] (setting [4]).
Take `Cc1cc(C(=O)N2CCCCC2)ccc1COc1ccc(C#N)cc1-c1csc(N2CC3C(C2)C3C(=O)O)n1` (stereo not drawn) [Compound 64]: the half-maximal effective concentration (EC50) in data set [1] was determined as 1800 nM. Further, the “Solubility (pH 4.5)” value in data set [2] (pH 4.5 buffer) is on record as 0.1 μg/mL. Moreover, the solubility in data set [2] (setting [4]) is above 54 µg/mL.
The like results for `Cc1ccc(OCc2ccc(C(=O)N3CCCCC3)cc2C#N)c(-c2csc(N3CCC(C(=O)O)CC3)n2)c1` [Compound 65] were, in that order, 58 nM, 0.1 μg/mL and 23 µg/mL (≈ 42.2 µM).
Take `Cc1cc(C(=O)N2CCCCC2)ccc1COc1c(C#N)cccc1-c1csc(N2CCC(C(=O)O)CC2)n1` [Compound 66]: the EC50 in data set [1] was 450 nM. In addition, the solubility is 1 µg/mL (≈ 1.84 µM) in data set [2] (setting [3]) and above 54 µg/mL in data set [2] (setting [4]).
The like results for `Cc1cc(C(=O)N2CCCCC2)ccc1COc1ccccc1-c1csc(N2CC3CCC(C2)C3C(=O)O)n1` (stereo not drawn) [Compound 67] were, in that order, 2.5 nM, 0.2 µg/mL (≈ 0.366 µM) and above 54 µg/mL.
The corresponding values for `Cc1cc(C(=O)N2CCCCC2)ccc1COc1ccccc1-c1csc(N2C3CCC2CC(C(=O)O)C3)n1` (stereo not drawn) [Compound 68] are 43 nM, 1.2 µg/mL (≈ 2.2 µM) and above 54 µg/mL.
Turning to `Cc1ccc(OCc2ccc(C(=O)N3CCOCC3)cc2C#N)c(-c2csc(N3CCC(C(=O)O)CC3)n2)c1` [Compound 70], the EC50 in data set [1] amounted to 180 nM. In addition, the solubility in data set [2] (setting [3]) was 0.45 µg/mL (≈ 0.823 µM); in data set [2] (setting [4]) it was above 54 µg/mL.
The corresponding values for `Cc1ccc(OCc2ccc(C(=O)N3CCCCC3)cc2C)c(-c2csc(N3CCC(C(=O)O)C(C)C3)n2)c1` (stereo not drawn) [Compound 71] are 12000 nM, 42 µg/mL (≈ 76.7 µM) and above 62 µg/mL.
The like results for `Cc1cc(CN2CCOCC2)ccc1COc1ccc(C#N)cc1-c1csc(N2CCC(C(=O)O)C(C)C2)n1` (stereo not drawn) [Compound 72] were, in that order, 4.8 nM, 0.5 µg/mL (≈ 0.915 µM) and above 54 µg/mL.
The like results for `Cc1ccc(OCc2ccc(C(=O)N3CCCCC3)cc2C)c(-c2csc(N3CCC(C(=O)O)CC3C)n2)c1` (stereo not drawn) [Compound 73] were, in that order, 7.6 nM, 1.9 µg/mL (≈ 3.47 µM) and above 54 µg/mL.
As to `Cc1ccc(OCc2ccc(CN3CCOCC3)cc2C)c(-c2csc(N3CC4CCC(C3)C4C(=O)O)n2)c1` (stereo not drawn) [Compound 74], the EC50 in data set [1] turned out to be 27 nM. Further, the solubility in data set [2] (setting [3]) stood at 40 µg/mL (≈ 73 µM); in data set [2] (setting [4]) it was 42 µg/mL (≈ 76.7 µM).
Consider `COCCN(C)Cc1ccc(COc2ccc(C)cc2-c2csc(N3CC[C@@H](C(=O)O)[C@@H](C)C3)n2)c(C#N)c1` [Compound 75], for which, in data set [1], the EC50 was determined as 600 nM. The solubility in data set [2] (setting [3]) and in data set [2] (setting [4]) was above 66 µg/mL each time.
Take `Cc1cc(C(=O)N2CCCCC2)ccc1COc1ccc(Cl)cc1-c1csc(C2=CCC(C(=O)O)CC2)n1` (stereo not drawn) [Compound 76]: in data set [1], the concentration for a half-maximal effect (EC50) was 600 nM. Besides, the “Solubility (pH 4.5)” value in data set [2] (pH 4.5 buffer) amounted to 0.1 μg/mL. For the same molecule, in data set [2] (setting [4]), the solubility was 4.1 µg/mL (≈ 7.44 µM).
For `Cc1cc(CN2CCOCC2)ccc1COc1ccc(F)cc1-c1csc(N2CC3CCC(C2)C3C(=O)O)n1` (stereo not drawn) [Compound 77], the concentration for a half-maximal effect (EC50) in data set [1] came to 4400 nM. The solubility in data set [2] (setting [3]) is 22 µg/mL (≈ 39.9 µM); in data set [2] (setting [4]), 16 µg/mL (≈ 29 µM).
For the molecule `Cc1cc(C(=O)N2CCCCC2)ccc1COc1ccc(Cl)cc1-c1csc(N2CC3C(C2)C3C(=O)O)n1` (stereo not drawn) [Compound 78], in data set [1], the concentration for a half-maximal effect (EC50) worked out at 550 nM. For the same molecule, the values for the solubility in data set [2] (setting [3]) and in data set [2] (setting [4]) were 0.2 µg/mL (≈ 0.362 µM) and above 55 µg/mL, respectively.
The like results for `Cc1cc(C(=O)N2CCCCC2)ccc1COc1ccc(F)cc1-c1csc(N2CCC(C(=O)O)CC2C)n1` (stereo not drawn) [Compound 79] were, in that order, 50 nM, 0.25 µg/mL (≈ 0.453 µM) and above 55 µg/mL.
The corresponding values for `Cc1cc(CN2CCOCC2)ccc1COc1ccc(F)cc1-c1csc(N2C3CCC2CC(C(=O)O)C3)n1` (stereo not drawn) [Compound 80] are 740 nM, above 62 µg/mL and above 62 µg/mL.
The corresponding values for `N#Cc1cc(CN2CCOCC2)ccc1COc1c(Cl)cccc1-c1csc(N2CCC(C(=O)O)CC2)n1` [Compound 81] are 70 nM, 36 µg/mL (≈ 65.1 µM) and 38 µg/mL (≈ 68.7 µM).
With `Cc1cc(CN2CCS(=O)(=O)CC2)ccc1COc1ccccc1-c1csc(N2CC3C(C2)C3C(=O)O)n1` (stereo not drawn) [Compound 82], the concentration for a half-maximal effect (EC50) in data set [1] is 3100 nM. For the same molecule, the solubility was 12 µg/mL (≈ 21.7 µM) in data set [2] (setting [3]) and above 55 µg/mL in data set [2] (setting [4]).
The like results for `Cc1cc(CN2CCOCC2)ccc1COc1ccc(Cl)cc1-c1csc(N2CCC(C(=O)O)C(C)C2)n1` (stereo not drawn) [Compound 83] were, in that order, 210 nM, 11 µg/mL (≈ 19.8 µM) and 25 µg/mL (≈ 45 µM).
